# Source: patent US20240207414A1, “DISULFIDE-BASED PRODRUG COMPOUND” (Ludwig-Maximilians-Universitat Munchen, priority 2021, published 2024)
# Key:
# [1] = target: thioredoxin reductase 2 (TrxR2) (Homo sapiens, UniProt Q9NNW7); assay: Enzymatic activation assay: NADPH/TrxR2 without Trx; type: biochemical; conditions: NADPH/TrxR2, no Trx added, 37° C., 6 h
# Excerpt: (§1) This assay (see FIG. 2) examined the resistance of disulfide-based reduction-triggered compounds to the major cellular enzymatic systems that maintain redox homeostasis and are capable of reducing disulfides, evaluated in a cell-free assay, to see if these compounds can be useful for selective enzyme-triggered release.
# (§2) Assay conditions: A black 96-well plate with black bottom was charged with solutions of fluorophore-releasing reduction-triggered probes that are compounds of the invention (P1, P2) or that are not compounds of the invention and reveal the performance of prior art systems (X19) (50 μL; 40 μM in aq. TE buffer (pH 7.4) and 4 μL DMSO). […]
# (§3) Data Representation: (F(t)-F^NADPH(t)) is the fluorescence intensity of the test solution at time t, from which is subtracted a background fluorescence level also at time t from a solution with NADPH (which itself is fluorescent, and is present in 10-fold higher concentration than the probe) and with the same protein mixture but without the probe. F^max(t) is the maximum possible fluorescence intensity value at time t, determined by incubation with TCEP (100 μM)) similarly as for the chemical reductant assay. (F(t)−F^NADPH(t))/F^max(t) thus gives the timecourse of fluorescence signal, as a fraction of the maximum possible fluorescence signal. […]
# [2] = target: T1, glutathione reductase (GR) (Homo sapiens, UniProt P00390); assay: Enzymatic activation assay: GR; type: biochemical; conditions: NADPH/GR
# T1 sequence (P00390 44-522): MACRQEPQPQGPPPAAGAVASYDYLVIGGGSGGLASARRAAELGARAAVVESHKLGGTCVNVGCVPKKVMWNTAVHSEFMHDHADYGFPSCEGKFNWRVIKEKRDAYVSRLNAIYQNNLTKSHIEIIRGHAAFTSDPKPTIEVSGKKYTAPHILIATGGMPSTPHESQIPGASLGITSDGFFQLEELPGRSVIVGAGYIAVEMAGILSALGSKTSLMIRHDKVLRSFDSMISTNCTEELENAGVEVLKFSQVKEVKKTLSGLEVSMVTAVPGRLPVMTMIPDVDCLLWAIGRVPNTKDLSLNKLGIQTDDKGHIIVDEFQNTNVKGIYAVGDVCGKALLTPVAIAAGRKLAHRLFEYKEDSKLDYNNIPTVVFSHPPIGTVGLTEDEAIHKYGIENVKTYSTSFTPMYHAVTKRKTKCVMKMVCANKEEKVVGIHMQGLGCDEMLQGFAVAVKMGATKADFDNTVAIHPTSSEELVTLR
# Excerpt: as §1, §2, §3
# thioredoxin reductase 2 (TrxR2), sequence (Q9NNW7 37-524): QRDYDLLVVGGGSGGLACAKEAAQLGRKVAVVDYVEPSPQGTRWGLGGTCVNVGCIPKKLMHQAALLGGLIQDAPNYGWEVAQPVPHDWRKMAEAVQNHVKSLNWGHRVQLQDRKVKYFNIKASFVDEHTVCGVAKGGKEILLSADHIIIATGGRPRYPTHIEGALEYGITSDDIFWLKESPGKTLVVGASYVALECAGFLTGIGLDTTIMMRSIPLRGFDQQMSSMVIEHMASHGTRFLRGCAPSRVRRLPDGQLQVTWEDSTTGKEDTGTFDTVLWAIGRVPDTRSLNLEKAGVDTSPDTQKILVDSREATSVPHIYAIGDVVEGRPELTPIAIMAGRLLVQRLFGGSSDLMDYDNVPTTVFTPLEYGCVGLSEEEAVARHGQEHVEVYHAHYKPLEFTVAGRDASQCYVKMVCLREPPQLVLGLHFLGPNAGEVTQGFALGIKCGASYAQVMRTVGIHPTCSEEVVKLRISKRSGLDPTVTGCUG
Compound,cargo release / processing by TrxR2 [1],cargo release / processing by oxidoreductase GR [2]
"O=C(Oc1ccc(Cl)cc1-c1nc2ccc(Cl)cc2c(=O)[nH]1)N1CCC[C@@H]2CSSC[C@@H]21 (racemic) [Compound P2, 4-chloro-2-(6-chloro-4-oxo-3,4-dihydroquinazolin-2-yl)phenyl-(cis)-hexahydro-[1,2]dithiino[4,5-b]pyridine-1(2H)-carboxylate]",not processed,resist
"O=C(Oc1ccc(Cl)cc1-c1nc2ccc(Cl)cc2c(=O)[nH]1)N1CCC[C@@H]2CSSC[C@H]21 (racemic) [Compound P1, 4-chloro-2-(6-chloro-4-oxo-3,4-dihydroquinazolin-2-yl)phenyl-(trans)-hexahydro-[1,2]dithiino[4,5-b]pyridine-1(2H)-carboxylate]",not processed,resist
